The test system of data set [1] is THP-1 (acute monocytic leukemia). The data set is described as follows: MTT proliferation assay, THP-1. The data set is classed as cell-based, human. The note with it: for IC50: Homo sapiens, THP-1, 72 h treatment, MTT. The procedure: (§1) The effect of the new synthesized compounds was tested on five human tumor cell lines, HeLa (human cervical adenocarcinoma; from ATCC), CaCo-2 (human colorectal adenocarcinoma), HL-60 (acute promyelocytic leukemia), HuT78 (T-cell lymphoma) and THP-1 (acute monocytic leukemia), and on one non-tumor cell line, MRC-5 (human fetal lung fibroblasts). The MRC-5 cells were used between 24 and 26 passages. The cells were cultured in two different types of media: DMEM (Gibco, EU) and RPMI 1640 (Gibco, EU). Both media were supplemented with 2 mM glutamine, fetal bovine serum (10%; heat inactivated) and antibiotics (100 U penicillin and 0.1 mg streptomycin). RPMI 1640 was additionally supplemented with 10 mM HEPES and 1 mM sodium pyruvate. The cells growing in a monolayer were cultured in DMEM, while the cells growing in suspension were cultured in RPMI 1640. The cells were grown in humidified atmosphere under the conditions of 37 °C/5% CO2 gas in the CO2 incubator (IGO 150 CELLlife^TM, JOUAN, Thermo Fisher Scientific, Waltham, MA, USA).
(§2) Growth-inhibitory activity was assessed using a slightly modified procedure based on the National Cancer Institute’s protocol. Briefly, the cells were seeded in 96-well microtiter plates and incubated for 24 h. They were then treated with 10^−7 to 10^−4 M concentrations of the tested compounds for an additional 72 h. After the treatment period, the effects of the tested compounds on the growth rate of the cells were examined using the MTT assay. Absorbance was measured at 595 nm using a microplate reader. […] The selectivity index was calculated according to the following formula: SI=IC50 value of normal cell line/IC50 value of cancer cell line
(§3) The effect of each concentration was analyzed by plotting the logarithm of the concentration of the evaluated compound against the corresponding percentage inhibition value using least squares.

The next data set deals with Hut78 (T-cell lymphoma). The data set is described as follows: MTT proliferation assay, HuT78. The format is cell-based, human. The note with it: for IC50: Homo sapiens, HuT78, 72 h treatment, MTT. The procedure:
as §1, §2, §3

Data set [2] deals with MRC-5 (human fetal lung fibroblasts, non-tumor). The data set is described as follows: MTT proliferation assay, MRC-5. The data set is classed as cell-based. The note with it: MRC5, 72 h treatment. On the procedure:
as §1, §2, §3

Data set [3] deals with HL-60 (acute promyelocytic leukemia). The data set is described as follows: MTT proliferation assay, HL-60. The format is cell-based. The note with it: Homo sapiens, 72 h treatment. The procedure:
as §1, §2, §3

The next data set deals with HuT78 cells. The data set is described as follows: Cell cycle analysis by flow cytometry (PI staining). The note with it: 24 h, p < 0.05. The data set is classed as cell-based, human. On the procedure: The cells were exposed to the compounds for 24 h, collected, washed with PBS, fixed with 70% ethanol and stored at −20 °C until analysis. On the day of analysis, the cell pellets were washed twice with PBS, resuspended in 1 mg/mL PI and 0.2 mg/mL RNase A and left in a dark/cold atmosphere for 30 min. The stained cells were analyzed using FACSCalibur (Becton Dickinson, Franklin Lakes, NJ, USA) flow cytometer. Tests were performed in duplicate and repeated twice. FlowJo software, version 10.2., was adapted for the analysis of DNA histograms.
[…] 13.5 (TIBCO Software Inc., Tulsa, USA) was used for the statistical analysis of the results. Student’s t test was used for data analysis. Differences were considered statistically significant at p < 0.05.

The subject of data set [4] is HeLa (human cervical adenocarcinoma). The data set is described as follows: MTT proliferation assay, HeLa. The format is cell-based. The note with it: 72 h treatment. The procedure:
as §1, §2, §3

The subject of data set [5] is CaCo-2 (human colorectal adenocarcinoma). Nature of the data set: MTT proliferation assay, CaCo-2. The format is cell-based. The note with it: 72 h treatment. On the procedure: as §1, §2, §3
Setting [6] is: SI = IC50 of normal cell line (MRC-5) / IC50 of cancer cell line.

The structures appear in SMILES notation.

The source of these data is PMC10574761, “Novel 1,2,3-Triazole-Containing Quinoline–Benzimidazole Hybrids: Synthesis, Antiproliferative Activity, In Silico ADME Predictions, and Docking” (Molecules, 2023).

In turn, `COc1ccc2[nH]c(-c3ccc(OCc4cn(-c5ccnc6cc(Cl)ccc56)nn4)cc3)nc2c1` [Compound 9c, 7-chloro-4-(4-{[4-(5-methoxy-1H--benzo[d]imidazol-2-yl)phenoxy]methyl}-1H-1,2,3-triazol-1-yl)quinoline] came in with a melting point of 85 to 86 °C. The compound further had an IC50 in data set [1] of 0.18 µM. For the same compound, in data set [1] (setting [6]), the “selectivity index (SI) for THP-1 cells” value came out at 15. Also, half-maximal inhibition in the data set with Hut78 (T-cell lymphoma) (IC50) required 0.2 µM. The “selectivity index (SI) for HuT78 cells” value in the data set on Hut78 (T-cell lymphoma) (setting [6]) was 13.55. Also, in data set [2], inhibition was half-maximal at 2.71 µM (IC50). Besides, in data set [3], the IC50 came out at 1.02 µM. For the same compound, in the data set with HuT78 cells (HuT-78, 0.5 µM), the “enrichment of the S fraction compared to control cells” value is on record as 31%. This compound also had an IC50 in data set [4] of 7.53 µM. The same compound had a concentration for half-maximal inhibition (IC50) in data set [5] of 8.3 µM.

For `CCCNC(=N)c1ccc2[nH]c(-c3ccc(OCc4cn(-c5ccnc6cc(Cl)ccc56)nn4)c(Br)c3)nc2c1.Cl.Cl.Cl` [Compound 10e, 2-(3-bromo-4-{[1-(7-chloroquinolin-4-yl)-1H-1,2,3-triazol-4-yl]methoxy}phenyl)-N-propyl-1H-benzo[d]imidazol-5-carboximidamide trihydrochloride], the IC50 in data set [1] is over 100 µM; in the data set with Hut78 (T-cell lymphoma) it was 9.68 µM; in data set [2], over 100 µM; in data set [3] it was 93.2 µM; in data set [4] it was over 100 µM; in data set [5], over 100 µM. In the data set on HuT78 cells (HuT-78, 5 µM), the “increase in the aggregation of cells in the subG0/G1 phase” value is reported as “more than threefold”.

Compound `CCCNC(=N)c1ccc2[nH]c(-c3ccc(OCc4cn(CCNc5ccnc6cc(Cl)ccc56)nn4)cc3)nc2c1.Cl.Cl.Cl` [Compound 14e, 2-{4-[(1-{2-[(7-chloroquinolin-4-yl)amino]ethyl}-1H-1,2,3-triazol-4-yl)methoxy]phenyl}-N-propyl-1H-benzo[d]imidazol-5-carboximidamide trihydrochloride] came in with a melting point of 209 to 211 °C. The IC50 in data set [1] was over 100 µM. The compound also showed an IC50 in the data set on Hut78 (T-cell lymphoma) of 10.9 µM. This compound also had an IC50 in data set [2] of over 100 µM. The IC50 in data set [3] was over 100 µM. In addition, in the data set on HuT78 cells (HuT-78, 5 µM), the “increase of the proportion of cells in subG0/G1 phase compared to untreated cells” value is reported as 68%. The compound further came in with an IC50 in data set [4] of over 100 µM. In data set [5], this compound yielded an IC50 of over 100 µM.

In turn, `CCCNC(=N)c1ccc2[nH]c(-c3ccc(OCc4cn(CCNc5ccnc6cc(Cl)ccc56)nn4)c(Br)c3)nc2c1.Cl.Cl.Cl` [Compound 15e, 2-{3-bromo-4-[(1-{2-[(7-chloroquinolin-4-yl)amino]ethyl}-1H-1,2,3-triazol-4-yl)methoxy]phenyl}-N-propyl-1H-benzo[d]imidazol-5-carboximidamide trihydrochloride] showed a melting point of 169 to 171 °C. Moreover, the IC50 in data set [1] was over 100 µM. Further, in the data set on Hut78 (T-cell lymphoma), it took 7.83 µM to reach half-maximal inhibition (IC50). The compound also came in with an IC50 in data set [2] of over 100 µM. The same compound yielded an IC50 in data set [3] of over 100 µM. Also, the “increase of the proportion of cells in subG0/G1 phase compared to untreated cells” value with HuT78 cells (HuT-78, 5 µM) is 36%. Further, the IC50 in data set [4] was over 100 µM. In data set [5], this compound had an IC50 of over 100 µM.

Compound `Clc1ccc2c(-n3cc(COc4ccc(-c5nc6ccccc6[nH]5)cc4)nn3)ccnc2c1` [Compound 9a, 4-(4-{[4-(1H-benzo[d]imidazol-2-yl)phenoxy]methyl}-1H-1,2,3-triazol-1-yl)-7-chloroquinoline] came in with a melting point of 143 to 145 °C. Further, the IC50 in data set [1] was over 100 µM. Also, 100 µM corresponded to half-maximal inhibition in the data set on Hut78 (T-cell lymphoma) (IC50). Also, the IC50 in data set [2] was over 100 µM. Moreover, in data set [3], the IC50 was over 100 µM. For the same compound, in data set [4], the IC50 was over 100 µM. This compound also yielded an IC50 in data set [5] of over 100 µM.

`Clc1ccc2[nH]c(-c3ccc(OCc4cn(-c5ccnc6cc(Cl)ccc56)nn4)cc3)nc2c1` [Compound 9b, 7-chloro-4-(4-{[4-(5-chloro-1H-benzo[d]imidazol-2-yl)phenoxy]methyl}-1H-1,2,3-triazol-1-yl)quinoline] returned a melting point of 168 to 170 °C. Also, the IC50 in data set [1] is over 100 µM. This compound returned an IC50 in the data set on Hut78 (T-cell lymphoma) of 92.9 ± 4.3 µM. The IC50 in data set [2] was determined as 100 µM. Besides, the IC50 in data set [3] was over 100 µM. The IC50 in data set [4] was found to be 94.1 µM. In addition, the IC50 in data set [5] was over 100 µM.
